Experimental data published in ChEMBL document CHEMBL1201861, “Genomics of Drug Sensitity in Cancer screening data, Wellcome Trust Sanger Institute”.

Key:
Assay in all cases: cells
RH-1 = format: functional, cell-based, Homo sapiens; conditions: Homo sapiens, RH-1;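 also: growth inhibition of human RH-1 cells, read out with a cell viability assay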
Description: SANGER: Inhibition of human RH-1 cell growth in a cell viability assay.

HCE-4 = format: functional, cell-based; conditions: Homo sapiens;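 also: cell viability assay measuring inhibition of growth in the human HCE-4 cell line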
Description: SANGER: Inhibition of human HCE-4 cell growth in a cell viability assay.

SW 962 = format: functional, cell-based, Homo sapiens; conditions: Homo sapiens, SW 962;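 also: growth inhibition of human SW962 cells, read out by a cell viability assay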
Description: SANGER: Inhibition of human SW962 cell growth in a cell viability assay.

AM-38 = format: functional, cell-based, Homo sapiens; conditions: Homo sapiens, AM-38;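 also: growth inhibition of AM-38 cells of human origin, read out by a cell viability assay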
Description: SANGER: Inhibition of human AM-38 cell growth in a cell viability assay.

KGN = format: functional, cell-based, Homo sapiens; conditions: Homo sapiens, KGN;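 also: growth inhibition of KGN cells, read out with a cell viability assay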
Description: SANGER: Inhibition of human KGN cell growth in a cell viability assay.

JAR = format: functional, cell-based, Homo sapiens; conditions: Homo sapiens, JAR;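 also: growth inhibition of human JAR cells determined with a cell viability assay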
Description: SANGER: Inhibition of human JAR cell growth in a cell viability assay.

NMC-G1 = format: functional, cell-based, Homo sapiens; conditions: Homo sapiens, NMC-G1;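 also: growth inhibition of the NMC-G1 cell line, measured with a cell viability read-out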
Description: SANGER: Inhibition of human NMC-G1 cell growth in a cell viability assay.

NB13 = format: functional, cell-based, Homo sapiens; conditions: Homo sapiens, NB13;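 also: cell viability readout measuring growth inhibition of human NB13 cells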
Description: SANGER: Inhibition of human NB13 cell growth in a cell viability assay.

TGW = format: functional, cell-based, Homo sapiens; conditions: Homo sapiens, TGW;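 also: growth inhibition of human TGW cells, read out with a cell viability assay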
Description: SANGER: Inhibition of human TGW cell growth in a cell viability assay.

NB69 = format: functional, cell-based, Homo sapiens; conditions: Homo sapiens, NB69;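 also: growth inhibition of NB69 cells, determined by a cell viability assay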
Description: SANGER: Inhibition of human NB69 cell growth in a cell viability assay.

NOMO-1 = format: functional, cell-based, Homo sapiens; conditions: Homo sapiens, NOMO-1;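 also: growth inhibition of human NOMO-1 cells measured by a cell viability assay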
Description: SANGER: Inhibition of human NOMO-1 cell growth in a cell viability assay.

D283 Med = format: functional, cell-based, Homo sapiens; conditions: Homo sapiens, D283 Med
Description: SANGER: Inhibition of human D-283MED cell growth in a cell viability assay.

HEL = format: functional, cell-based, Homo sapiens; conditions: Homo sapiens, HEL;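 also: growth inhibition of HEL cells, read out with a cell viability assay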
Description: SANGER: Inhibition of human HEL cell growth in a cell viability assay.

COLO-320-HSR = format: functional, cell-based, Homo sapiens; conditions: Homo sapiens, COLO-320-HSR;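 also: growth inhibition of COLO-320-HSR cells, determined with a cell viability assay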
Description: SANGER: Inhibition of human COLO-320-HSR cell growth in a cell viability assay.

SNU-C2B = format: functional, cell-based; conditions: Homo sapiens;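 also: cell viability readout used to measure compound-driven suppression of SNU-C2B cell proliferation, IC50 marking half-maximal growth inhibition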
Description: SANGER: Inhibition of human SNU-C2B cell growth in a cell viability assay.

RPMI-8226 = format: functional, cell-based, Homo sapiens; conditions: Homo sapiens, RPMI-8226
Description: SANGER: Inhibition of human RPMI-8226 cell growth in a cell viability assay.

LB2518-MEL = format: functional, cell-based; conditions: Homo sapiens;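 also: growth inhibition of human LB2518-MEL cells, measured with a cell viability assay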
Description: SANGER: Inhibition of human LB2518-MEL cell growth in a cell viability assay.

A3-KAW = format: functional, cell-based, Homo sapiens; conditions: Homo sapiens, A3-KAW;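 also: growth inhibition of human A3-KAW cells, read out with a cell viability assay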
Description: SANGER: Inhibition of human A3-KAW cell growth in a cell viability assay.

LU-139 = format: functional, cell-based, Homo sapiens; conditions: Homo sapiens, LU-139
Description: SANGER: Inhibition of human LU-139 cell growth in a cell viability assay.

NTERA-2-cl-D1 = format: functional, cell-based, Homo sapiens; conditions: Homo sapiens, NTERA-2-cl-D1;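 also: inhibition of cell growth, measured with a cell viability assay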
Description: SANGER: Inhibition of human NTERA-S-cl-D1 cell growth in a cell viability assay.

D-247MG = format: functional, cell-based; conditions: Homo sapiens
Description: SANGER: Inhibition of human D-247MG cell growth in a cell viability assay.

OCUB-M = format: functional, cell-based; conditions: Homo sapiens;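 also: growth inhibition of the cancer cell line, read out through a cell viability assay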
Description: SANGER: Inhibition of human OCUB-M cell growth in a cell viability assay.

NCI-H69 = format: functional, cell-based, Homo sapiens; conditions: Homo sapiens, NCI-H69;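 also: growth inhibition of the cell line, read out with a cell viability assay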
Description: SANGER: Inhibition of human NCI-H69 cell growth in a cell viability assay.

RPMI-8866 = format: functional, cell-based, Homo sapiens; conditions: Homo sapiens, RPMI-8866
Description: SANGER: Inhibition of human RPMI-8866 cell growth in a cell viability assay.

NCI-H1299 = format: functional, cell-based; conditions: Homo sapiens;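 also: growth inhibition of human NCI-H1299 cells, read out by a cell viability assay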
Description: SANGER: Inhibition of human NCI-H1299 cell growth in a cell viability assay.

EOL1 = format: functional, cell-based, Homo sapiens; conditions: Homo sapiens, EOL1;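 also: growth inhibition of EoL-1 cells, read out by a cell viability assay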
Description: SANGER: Inhibition of human EoL-1-cell cell growth in a cell viability assay.

ES1 = format: functional, cell-based, Homo sapiens; conditions: Homo sapiens, ES1;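 also: growth inhibition of ES1 cells, read out with a cell viability assay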
Description: SANGER: Inhibition of human ES1 cell growth in a cell viability assay.

NCI-H1355 = format: functional, cell-based, Homo sapiens; conditions: Homo sapiens, NCI-H1355;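 also: growth inhibition of human NCI-H1355 cells, read out by a cell viability assay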
Description: SANGER: Inhibition of human NCI-H1355 cell growth in a cell viability assay.

SF-126 = format: functional, cell-based, Homo sapiens; conditions: Homo sapiens, SF-126;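 also: growth inhibition of human SF126 cells, read out with a cell viability assay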
Description: SANGER: Inhibition of human SF126 cell growth in a cell viability assay.

TE-8 = format: functional, cell-based, Homo sapiens; conditions: Homo sapiens, TE-8;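 also: growth inhibition of TE-8 cells, measured with a cell viability readout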
Description: SANGER: Inhibition of human TE-8 cell growth in a cell viability assay.

8-MG-BA = format: functional, cell-based, Homo sapiens; conditions: Homo sapiens, 8-MG-BA;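 also: growth inhibition of 8-MG-BA cells, read out with a cell viability assay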
Description: SANGER: Inhibition of human 8-MG-BA cell growth in a cell viability assay.

TE-9 = format: functional, cell-based, Homo sapiens; conditions: Homo sapiens, TE-9;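 also: cell growth inhibition, measured with a cell viability readout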
Description: SANGER: Inhibition of human TE-9 cell growth in a cell viability assay.

MZ1-PC = format: functional, cell-based, Homo sapiens; conditions: Homo sapiens, MZ1-PC;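 also: cell viability assay measuring growth inhibition of human MZ1-PC cells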
Description: SANGER: Inhibition of human MZ1-PC cell growth in a cell viability assay.

A388 = format: functional, cell-based; conditions: Homo sapiens;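 also: growth inhibition of human A388 cells, read out with a cell viability assay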
Description: SANGER: Inhibition of human A388 cell growth in a cell viability assay.

MV4-11 = format: functional, cell-based, Homo sapiens, MV-4-11; conditions: Homo sapiens, MV4-11;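 also: cell viability readout measuring growth inhibition of human MV-4-11 cells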
Description: SANGER: Inhibition of human MV-4-11 cell growth in a cell viability assay.

LS-1034 = format: functional, cell-based, Homo sapiens; conditions: Homo sapiens, LS-1034
Description: SANGER: Inhibition of human LS-1034 cell growth in a cell viability assay.

CCRF-CEM = format: functional, cell-based, Homo sapiens; conditions: Homo sapiens, CCRF-CEM;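 also: inhibition of CCRF-CEM cell growth, measured by a cell viability assay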
Description: SANGER: Inhibition of human CCRF-CEM cell growth in a cell viability assay.

MS-1 = format: functional, cell-based, Homo sapiens; conditions: Homo sapiens, MS-1;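 also: growth inhibition of MS-1 cells, read out by cell viability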
Description: SANGER: Inhibition of human MS-1 cell growth in a cell viability assay.

SW982 = format: functional, cell-based; conditions: Homo sapiens;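 also: growth inhibition of SW982 cells, read out with a cell viability assay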
Description: SANGER: Inhibition of human SW982 cell growth in a cell viability assay.

SK-MEL-1 = format: functional, cell-based, Homo sapiens; conditions: Homo sapiens, SK-MEL-1;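 also: growth inhibition of human SK-MEL-1 cells, read out by a cell viability assay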
Description: SANGER: Inhibition of human SK-MEL-1 cell growth in a cell viability assay.

BT-474 = format: functional, cell-based, Homo sapiens; conditions: Homo sapiens, BT-474
Description: SANGER: Inhibition of human BT-474 cell growth in a cell viability assay.

SK-N-DZ = format: functional, cell-based, Homo sapiens; conditions: Homo sapiens, SK-N-DZ; read-out: IC50;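 also: growth inhibition of the cancer cell line, read out through a viability assay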
Description: SANGER: Inhibition of human SK-N-DZ cell growth in a cell viability assay.

NEC8 = format: functional, cell-based, Homo sapiens; conditions: Homo sapiens, NEC8;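 also: growth inhibition of human NEC8 cells, read out by a cell viability assay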
Description: SANGER: Inhibition of human NEC8 cell growth in a cell viability assay.

SHP77 = format: functional, cell-based, Homo sapiens, SHP-77; conditions: Homo sapiens, SHP77;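 also: growth inhibition of human SHP-77 cells measured by a cell viability assay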
Description: SANGER: Inhibition of human SHP-77 cell growth in a cell viability assay.

DSH1 = format: functional, cell-based; conditions: Homo sapiens;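 also: growth inhibition of human DSH1 cells, measured with a cell viability readout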
Description: SANGER: Inhibition of human DSH1 cell growth in a cell viability assay.

SK-N-FI = format: functional, cell-based, Homo sapiens; conditions: Homo sapiens, SK-N-FI;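 also: cell viability assay measuring growth inhibition of human SK-N-FI cells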
Description: SANGER: Inhibition of human SK-N-FI cell growth in a cell viability assay.

BE-13 = format: functional, cell-based, Homo sapiens; conditions: Homo sapiens, BE-13;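 also: growth inhibition of human BE-13 cells, measured with a cell viability assay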
Description: SANGER: Inhibition of human BE-13 cell growth in a cell viability assay.

JVM-3 = format: functional, cell-based, Homo sapiens; conditions: Homo sapiens, JVM-3;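 also: growth inhibition of human JVM-3 cells, read out with a cell viability assay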
Description: SANGER: Inhibition of human JVM-3 cell growth in a cell viability assay.

NCI-H1648 = format: functional, cell-based, Homo sapiens; conditions: Homo sapiens, NCI-H1648;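 also: cell viability assay measuring inhibition of NCI-H1648 cell growth, from the Sanger screening data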
Description: SANGER: Inhibition of human NCI-H1648 cell growth in a cell viability assay.

NC1(c2ccc(-c3nc4ccn5c(=O)[nH]nc5c4cc3-c3ccccc3)cc2)CCC1 [MK-2206]
IC50 (RH-1): > 4 µM
IC50 (HCE-4): > 4 µM
IC50 (SW 962): > 4 µM
IC50 (AM-38): > 4 µM
IC50 (KGN): > 4 µM
IC50 (JAR): > 4 µM
IC50 (NMC-G1): > 4 µM
IC50 (NB13): > 4 µM
IC50 (TGW): > 4 µM
IC50 (NB69): 2.39 µM
IC50 (NOMO-1): > 4 µM
IC50 (D283 Med): > 4 µM
IC50 (HEL): > 4 µM
IC50 (COLO-320-HSR): > 4 µM
IC50 (SNU-C2B): > 4 µM
IC50 (RPMI-8226): 2.63 µM
IC50 (LB2518-MEL): > 4 µM
IC50 (A3-KAW): > 4 µM
IC50 (LU-139): > 4 µM
IC50 (NTERA-2-cl-D1): > 4 µM
IC50 (D-247MG): > 4 µM
IC50 (OCUB-M): 0.71 µM
IC50 (NCI-H69): > 4 µM
IC50 (RPMI-8866): > 4 µM
IC50 (NCI-H1299): > 4 µM
IC50 (EOL1): 3.07 µM
IC50 (ES1): 1.24 µM
IC50 (NCI-H1355): > 4 µM
IC50 (SF-126): > 4 µM
IC50 (TE-8): > 4 µM
IC50 (8-MG-BA): > 4 µM
IC50 (TE-9): > 4 µM
IC50 (MZ1-PC): > 4 µM
IC50 (A388): > 4 µM
IC50 (MV4-11): 2.75 µM
IC50 (LS-1034): > 4 µM
IC50 (CCRF-CEM): > 4 µM
IC50 (MS-1): > 4 µM
IC50 (SW982): > 4 µM
IC50 (SK-MEL-1): > 4 µM
IC50 (BT-474): > 4 µM
IC50 (SK-N-DZ): > 4 µM
IC50 (NEC8): 0.0965 µM
IC50 (SHP77): > 4 µM
IC50 (DSH1): > 4 µM
IC50 (SK-N-FI): > 4 µM
IC50 (BE-13): > 4 µM
IC50 (JVM-3): > 4 µM

CC1(C)CCC(c2ccc(Cl)cc2)=C(CN2CCN(c3ccc(C(=O)NS(=O)(=O)c4ccc(N[C@H](CCN5CCOCC5)CSc5ccccc5)c(S(=O)(=O)C(F)(F)F)c4)cc3)CC2)C1 [NAVITOCLAX]
IC50 (RH-1): > 2 µM
IC50 (HCE-4): > 2 µM
IC50 (SW 962): > 2 µM
IC50 (AM-38): > 2 µM
IC50 (KGN): > 2 µM
IC50 (JAR): > 2 µM
IC50 (NMC-G1): 0.811 µM
IC50 (NB13): 0.082 µM
IC50 (TGW): 0.0463 µM
IC50 (NB69): 1.46 µM
IC50 (NOMO-1): > 2 µM
IC50 (D283 Med): 0.177 µM
IC50 (HEL): 1.31 µM
IC50 (COLO-320-HSR): > 2 µM
IC50 (SNU-C2B): > 2 µM
IC50 (RPMI-8226): 0.457 µM
IC50 (LB2518-MEL): > 2 µM
IC50 (A3-KAW): > 2 µM
IC50 (LU-139): 0.205 µM
IC50 (NTERA-2-cl-D1): 0.5 µM
IC50 (D-247MG): 1.51 µM
IC50 (OCUB-M): > 2 µM
IC50 (NCI-H69): > 2 µM
IC50 (RPMI-8866): > 2 µM
IC50 (NCI-H1299): > 2 µM
IC50 (EOL1): 0.00669 µM
IC50 (ES1): > 2 µM
IC50 (NCI-H1355): > 2 µM
IC50 (SF-126): > 2 µM
IC50 (TE-8): > 2 µM
IC50 (8-MG-BA): > 2 µM
IC50 (TE-9): > 2 µM
IC50 (MZ1-PC): > 2 µM
IC50 (A388): 1.69 µM
IC50 (NCI-H1648): 1.71 µM
IC50 (MV4-11): 0.0159 µM
IC50 (LS-1034): > 2 µM
IC50 (CCRF-CEM): 0.335 µM
IC50 (MS-1): 0.469 µM
IC50 (SW982): > 2 µM
IC50 (SK-MEL-1): > 2 µM
IC50 (BT-474): > 2 µM
IC50 (SK-N-DZ): > 2 µM
IC50 (NEC8): > 2 µM
IC50 (SHP77): > 2 µM
IC50 (DSH1): > 2 µM
IC50 (SK-N-FI): > 2 µM
IC50 (BE-13): 0.365 µM
IC50 (JVM-3): > 2 µM

CN(C)CCOc1ccc(-c2nc(-c3ccncc3)c(-c3ccc4c(c3)CC/C4=N\O)[nH]2)cc1 [SB590885]
IC50 (RH-1): > 5 µM
IC50 (HCE-4): > 5 µM
IC50 (SW 962): > 5 µM
IC50 (AM-38): > 5 µM
IC50 (KGN): > 5 µM
IC50 (JAR): > 5 µM
IC50 (NMC-G1): > 5 µM
IC50 (NB13): > 5 µM
IC50 (TGW): > 5 µM
IC50 (NB69): > 5 µM
IC50 (NOMO-1): > 5 µM
IC50 (D283 Med): > 5 µM
IC50 (HEL): > 5 µM
IC50 (COLO-320-HSR): > 5 µM
IC50 (SNU-C2B): > 5 µM
IC50 (RPMI-8226): > 5 µM
IC50 (LB2518-MEL): > 5 µM
IC50 (A3-KAW): > 5 µM
IC50 (LU-139): > 5 µM
IC50 (NTERA-2-cl-D1): > 5 µM
IC50 (D-247MG): > 5 µM
IC50 (OCUB-M): > 5 µM
IC50 (NCI-H69): > 5 µM
IC50 (RPMI-8866): > 5 µM
IC50 (NCI-H1299): > 5 µM
IC50 (EOL1): 0.18 µM
IC50 (ES1): > 5 µM
IC50 (NCI-H1355): > 5 µM
IC50 (SF-126): > 5 µM
IC50 (TE-8): > 5 µM
IC50 (8-MG-BA): > 5 µM
IC50 (TE-9): > 5 µM
IC50 (MZ1-PC): > 5 µM
IC50 (A388): > 5 µM
IC50 (MV4-11): > 5 µM
IC50 (LS-1034): > 5 µM
IC50 (CCRF-CEM): > 5 µM
IC50 (MS-1): > 5 µM
IC50 (SW982): > 5 µM
IC50 (SK-MEL-1): > 5 µM
IC50 (BT-474): > 5 µM
IC50 (SK-N-DZ): > 5 µM
IC50 (NEC8): > 5 µM
IC50 (SHP77): > 5 µM
IC50 (DSH1): > 5 µM
IC50 (SK-N-FI): > 5 µM
IC50 (BE-13): > 5 µM
IC50 (JVM-3): > 5 µM
